pEC50, pIC50: −log10 of the molar value. In brackets after ≈: the same amount, converted by molar mass.
How the values were obtained:
[1] = Selectivity index, ratio of CC50 for cytotoxicity against MDCK cells to IC50 for influenza A virus A/Guangdong/243/72 ([…]) infected in MDCK cells; type: toxicity, cell-based; conditions: dog, read-out: Ratio CC50/IC50
Influenza A virus [2] = assay: Antiviral activity against influenza A virus A/Guangdong/243/72 ([…]) infected in MDCK cells assessed as inhibition of virus-induced cytopathic effect; type: functional, organism-based
[3] = tested on: Human immunodeficiency virus 1; assay: Antiviral activity against HIV-1 RF infected in human JM1 cells; type: functional, organism-based; conditions: Human immunodeficiency virus 1, RF
[4] = Selectivity index, ratio of CC50 for cytotoxicity against human MT4 cells to EC50 for antiviral activity against HIV-1 NL 4-3 (X4) infected in human MT4 cells; type: toxicity, cell-based; conditions: read-out: Ratio CC50/EC50
[5] = tested on: Human immunodeficiency virus 1; assay: Antiviral activity against HIV-1 Bal (R5) infected in human TZM-bl cells assessed as inhibition of virus induced cytopathic effect by luciferase based assay; type: functional, organism-based; conditions: Human immunodeficiency virus 1, Bal (R5)
[6] = Cytotoxicity against human TZM-bl cells by luciferase assay; type: toxicity, cell-based
[7] = tested on: Human immunodeficiency virus 1; assay: Antiviral activity against HIV-1 NL 4-3 (X4) infected in human MT4 cells assessed as inhibition of virus induced cytopathic effect by MTT assay; type: functional, organism-based; conditions: Human immunodeficiency virus 1, NL 4-3 (X4)
[8] = Cytotoxicity against human MT4 cells by MTT assay; type: toxicity, cell-based
[9] = Selectivity index, ratio of CC50 for cytotoxicity against human TZM-bl cells to EC50 for antiviral activity against HIV-1 Bal (R5) infected in human TZM-bl cells; type: toxicity, cell-based; conditions: read-out: Ratio CC50/EC50
[10] = Selectivity index, ratio of CC50 for cytotoxicity against human TZM-bl cells to EC50 for antiviral activity against HIV-1 NL 4-3 (X4) infected in human TZM-bl cells; type: toxicity, cell-based; conditions: read-out: Ratio CC50/EC50
[11] = tested on: Human immunodeficiency virus 1; assay: Antiviral activity against HIV-1 NL 4-3 (X4) infected in human TZM-bl cells assessed as inhibition of virus induced cytopathic effect by luciferase based assay; type: functional, organism-based; conditions: Human immunodeficiency virus 1, NL 4-3 (X4)
[12] = Cytotoxicity against human MT4 cells expressing eGFP under control of HIV-1 LTR promoter sequence; type: toxicity, cell-based
[13] = Selectivity index, ratio of CC50 for cytotoxicity against human MT4 cells expressing eGFP under control of HIV-1 LTR promoter sequence to EC50 for antiviral activity against HIV-1 infected in human MT4 cells expressing eGFP under control of HIV-1 LTR promoter sequence; type: toxicity, cell-based; conditions: read-out: Ratio CC50/EC50
[14] = Inhibition of HIV-1 integrase catalysed 3' processing activity by densitometric analysis; set-up: species or system Human immunodeficiency virus 1
[15] = Inhibition of recombinant HIV-1 integrase catalysed strand transfer activity measured after 60 mins by electrochemiluminescent plate-based assay; set-up: species or system Human immunodeficiency virus 1
[16] = tested on: Human immunodeficiency virus 1; assay: Antiviral activity against VSV pseudo-typed HIV-1 infected in human MT4 cells expressing eGFP under control of HIV-1 LTR promoter sequence; type: functional, organism-based; conditions: Human immunodeficiency virus 1, MT4
[17] = Cytotoxicity against human Huh-7 cells assessed as reduction in cell viability incubated for 3 days by MTT assay; type: toxicity, cell-based; conditions: time 3 day
[18] = Selectivity index, ratio of CC50 for cytotoxicity against human Huh-7 cells to EC50 for Dengue virus 2 New Guinea C infected in human Huh-7 cells; type: toxicity, cell-based; conditions: read-out: Ratio CC50/EC50
dengue virus type 2 = assay: Antiviral activity against Dengue virus 2 New Guinea C infected in human Huh-7 cells assessed as reduction in virus induced cytopathic effect incubated for 3 days by trypan blue staining based assay; type: functional, organism-based; conditions: Huh-7, 72 h
Human alphaherpesvirus 2 = assay: Antiviral activity against HSV-2 UW 268 infected in MDCK cells assessed as inhibition of viral replication measured after 24 hrs by plaque reduction assay; type: functional, organism-based; conditions: Human alphaherpesvirus 2, UW 268, MDCK
Influenza A virus [19] = assay: Antiviral activity against influenza A virus A/NWS/33 (H1N1) infected in MDCK cells; type: functional, organism-based
Human alphaherpesvirus 1 = assay: Antiviral activity against HSV-1 KOS infected in MDCK cells assessed as inhibition of viral replication measured after 24 hrs by plaque reduction assay; type: functional, organism-based; conditions: Human alphaherpesvirus 1, KOS
Hepatitis C virus [20] = assay: Antiviral activity against Hepatitis C virus genotype 1 infected in Bart79I RNA-transfected human Huh7.5 cells assessed as reduction in viral replication incubated for 24 to 72 hrs by RT-PCR assay; type: functional, organism-based, Hepacivirus hominis; conditions: genotype 1, Huh7.5
[21] = Cytotoxicity against HCV RNA-transfected human Huh7.5 cells assessed as reduction in cell viability; type: toxicity, cell-based, Huh-7.5; conditions: HCV RNA-transfected Huh7.5 cells
Hepatitis C virus [22] = assay: Antiviral activity against Hepatitis C virus genotype 2 infected in human Huh7.5 cells assessed as reduction in viral replication by RT-PCR assay; type: functional, organism-based, Hepacivirus hominis; conditions: genotype 2, Huh7.5
Hepatitis C virus [23] = assay: Antiviral activity against Hepatitis C virus genotype 2 infected in renilla luciferase-J6/JFH1 RNA-transfected human Huh7.5 cells assessed as reduction in viral replication incubated for 72 hrs by qRT-PCR analysis; type: functional, organism-based, Hepacivirus hominis; conditions: genotype 2, Huh7.5, 72 h
[24] = molecular target: Neuraminidase (Influenza A virus (A/Puerto Rico/8/1934(H1N1)), UniProt P03468); assay: Inhibition of influenza A virus A/PR/8/34 (H1N1) neuraminidase
Neuraminidase (Influenza A virus (A/Puerto Rico/8/1934(H1N1)), UniProt P03468), sequence (P03468 whole entry): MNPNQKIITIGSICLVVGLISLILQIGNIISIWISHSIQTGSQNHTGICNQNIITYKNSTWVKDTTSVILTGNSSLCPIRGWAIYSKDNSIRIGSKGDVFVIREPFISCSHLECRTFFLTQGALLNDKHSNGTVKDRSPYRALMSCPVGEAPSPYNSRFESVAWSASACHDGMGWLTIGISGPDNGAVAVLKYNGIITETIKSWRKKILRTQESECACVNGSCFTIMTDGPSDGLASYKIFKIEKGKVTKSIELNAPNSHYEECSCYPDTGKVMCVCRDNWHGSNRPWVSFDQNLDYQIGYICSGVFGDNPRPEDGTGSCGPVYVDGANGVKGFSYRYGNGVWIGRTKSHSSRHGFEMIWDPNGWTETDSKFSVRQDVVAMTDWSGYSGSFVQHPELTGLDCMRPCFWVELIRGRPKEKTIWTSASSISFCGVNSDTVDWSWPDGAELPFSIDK

[25] = Cytotoxicity against human Huh7.5 cells infected with Hepatitis C virus assessed as reduction in cell viability; type: toxicity, cell-based, Huh-7.5
Hepatitis C virus [26] = assay: Antiviral activity against Hepatitis C virus infected in human Huh7.5 cells assessed as reduction in viral replication; type: functional, organism-based, Hepacivirus hominis
[27] = tested on: Human immunodeficiency virus 1; assay: Antiviral activity against HIV-1 infected in human macrophages assessed as inhibition of viral replication; type: functional; conditions: Human immunodeficiency virus 1, Macrophage
[28] = tested on: Human immunodeficiency virus 1; assay: Antiviral activity against HIV-1 infected in human leucocytes assessed as inhibition of viral replication; type: functional; conditions: Human immunodeficiency virus 1, Leucocyte

In the case of COc1cc(/C=C/c2cc(O)cc(O)c2)ccc1O, the selectivity ratio [1] was 8.99 and the IC50 (Influenza A virus [2]) was 4.28 µg/mL (≈ 16.6 µM).
In the case of O=S(=O)(O)c1cc(N=C=S)ccc1/C=C/c1ccc(N=C=S)cc1S(=O)(=O)O, the pIC50 [3] was 4.70.
Oc1cc(/C=C/c2cc(O)c(O)c(O)c2)cc(O)c1O showed a selectivity ratio [4] of 16, a pEC50 [5] of 5.77 and a CC50 [6] of 20.1 µM. For the same molecule, the pEC50 [7] was 6.13, the CC50 [8] was 11.9 µM and the selectivity ratio [9] was 12. It also gave a selectivity ratio [10] of 69 and a pEC50 [11] of 6.54.
For O=S(=O)(O)c1cc(/N=N/c2cc(S(=O)(=O)O)c3ccccc3c2O)ccc1/C=C/c1ccc(/N=N/c2cc(S(=O)(=O)O)c3ccccc3c2O)cc1S(=O)(=O)O, the CC50 [12] was 59 µM, the selectivity ratio [13] was 19.2 and the pIC50 [14] was 6.49. It also gave a pIC50 [15] of 6.74 and a pEC50 [16] of 5.51.
For COc1cc(/C(C#N)=C\c2cc3ccccc3s2)cc(OC)c1OC, the CC50 at 72 h [17] was 1.9 µM, the selectivity ratio [18] was 263 and the pEC50 (dengue virus type 2) was 8.14.
Oc1ccc([C@@H]2c3c(O)cc(O)cc3[C@@H]3c4c(cc(O)cc4[C@H]2[C@@H]2c4cc(O)cc5c4[C@@H](c4cc(O)cc(O)c4[C@H]2c2ccc(O)cc2)[C@H](c2ccc(O)cc2)O5)O[C@H]3c2ccc(O)cc2)cc1 gave a pIC50 (Human alphaherpesvirus 2) of 5.19, a pIC50 (Influenza A virus [19]) of 5.19 and a pIC50 (Human alphaherpesvirus 1) of 5.55.
With O=C1C=C[C@]23[C@H](C1)Oc1cccc4c1[C@H]2[C@H](c1cc(O)cc2c1[C@@H]4[C@H](c1ccc(O)cc1)O2)[C@@H](c1cc(O)cc2c1[C@@H](c1cc(O)cc(O)c1)[C@H](c1ccc(O)cc1)O2)[C@@H]3c1ccc(O)cc1 the pIC50 (Human alphaherpesvirus 2) was 5.17 and the pIC50 (Human alphaherpesvirus 1) was 5.55.
Molecule COc1cc([C@H]2Oc3c(ccc(/C=C/c4cc(O)cc(O)c4)c3OC)[C@@H]2c2cc(O)cc(O)c2)ccc1O has a selectivity ratio [1] of 9.6 and an IC50 (Influenza A virus [2]) of 12 µg/mL (≈ 23.3 µM).
For CC(=O)Oc1ccc(/C=C/c2cc(OC(C)=O)cc3c2C(c2cc(OC(C)=O)cc(OC(C)=O)c2)C(c2ccc(OC(C)=O)cc2)O3)cc1 (configuration not stated), the pEC50 (Hepatitis C virus [20]) was 4.98, the CC50 [21] was > 10 µM and the pEC50 (Hepatitis C virus [22]) was 5.33. It also gave a pEC50 (Hepatitis C virus [23]) of 5.63.
Molecule COc1cc(/C=C/c2cc(O)cc(O)c2Cc2ccc(O)c(O)c2)ccc1O has a selectivity ratio [1] of 32.4, an IC50 (Influenza A virus [2]) of 6.17 µg/mL (≈ 16.2 µM) and a pIC50 [24] of 4.88.
In the case of Nc1ccc(/N=N/c2ccc(/C=C/c3ccc(/N=N/c4ccc(N)c5ccc(S(=O)(=O)O)cc45)cc3S(=O)(=O)O)c(S(=O)(=O)O)c2)c2ccc(S(=O)(=O)O)cc12, the CC50 [12] was > 100 µM, the selectivity ratio [13] was > 6.5 and the pIC50 [14] was 5.49. The pIC50 [15] was 5.49 and the pEC50 [16] was 4.82.
For Oc1ccc([C@@H]2c3c(O)cc(O)cc3[C@H]3c4c(cc(O)cc4[C@@H]2O)O[C@@H]3c2ccc(O)cc2)cc1, the CC50 [25] was > 10 µM and the pEC50 (Hepatitis C virus [26]) was 5.24.
CC(=O)CC(=O)Nc1ccc(/C=C/c2ccc(-n3nccc3O)cc2S(=O)(=O)O)c(S(=O)(=O)O)c1 showed an EC90 [27] of 0.5 µM and an EC90 [28] of 0.5 µM.
